Laboratory results published in patent publication US20100152434A1, “Protein Kinase-binding Nucleosides and Associated Methods” (priority 2007, published 2010).
Like-named read-outs stand apart in the source and are kept apart here.

What was measured:
PC-3 [1] = test system: PC-3
MDA-MB-468 = experiment: NCI 60 in vitro screen (SRB), Breast Cancer; format: cell-based, human
Experimental: Mean ODtzero=The average of optical density measurements SRB-derived color just before exposure of cells to the test compound. Mean ODtest=The average of optical density measurement of SRB-derived color after 48 hours exposure of cells to the test compound. Mean ODctrl=The average of optical density measurements of SRB-derived color after 48 hours with no exposure of cells to the test compound.

PC-3 [2] = experiment: cells; settings: Homo sapiens
SK-MEL-28 [3] = experiment: cells; settings: Homo sapiens
SR [4] = test system: SR
SW-620 [5] = experiment: cells; settings: Homo sapiens
SR [6] = experiment: cells; settings: Homo sapiens; for CC50: read-out: LC50
HL-60(TB) = experiment: cells; settings: Homo sapiens
[7] = test system: 60 different human tumor cell lines (the NCI 60); experiment: cells; settings: read-out: LC50 value for each cell line
[8] = test system: 60 different human tumor cell lines (the NCI 60); settings: CCRF-CEM, HL-60(TB), K-562, MOLT-4, RPMI-8226, SR, A549/ATCC, NCI-H460, HCT-116, HCT-15, HT29, SF-268, SF-295, U251, LOX IMVI, SK-MEL-28, SK-MEL-5, IGROV1, OVCAR-3, OVCAR-8, A498, RXF393, MCF7, HS578T
cells = settings: Homo sapiens
SW-620 [9] = test system: SW-620
SK-MEL-28 [10] = test system: SK-MEL-28
MINK = MINK (Homo sapiens, UniProt Q8N4C8); experiment: Ambit kinase phage display ATP-binding-site ligand binding assay; settings: read-out: percent inhibition of binding
Text: (§1) This assay is based on ligand-affinity/protein kinase phage display and was employed essentially as described by Fabian et. al [Nature Biotech. […] In this assay, protein kinases are cloned into T7 bacteriophage which express the kinase fusion proteins on the phage capsid. T7 kinase-tagged phage are then screened for binding to ATP-binding-site ligands that have been immobilized on a solid support. Phage are screened for binding to the anchored ligands both in the presence of test compound and in its absence (control). Elution of the bound phage by free ligand (ATP-binding site ligand that is not immobilized on a solid support) followed by determination of the phage titre provides a reliable measure of the ability of test compounds to block binding of target kinases to resin-bound ATP-binding-site ligands.
(§2) T7 kinase-tagged phage strains were grown in parallel in microtiter plates in a proprietary bacterial host derived from E. Coli strain BL21. E. Coli were grown to a log phase, infected with T7 kinase-tagged phage, and incubated while shaking at 32° C. until bacterial lysis (approx. 90 min). Lysates were centrifuged (6,000 g) and filtered (0.2 μm). […] The phage titre of the eluates was measured by quantitative PCR or by plaque assays. […]

CDK3 = CDK3 (Homo sapiens, UniProt Q00526); experiment: as above; settings: read-out: percent inhibition of binding
Text: as §1, §2

ALK6 = ALK6 (Homo sapiens, UniProt O00238); experiment: as above; settings: read-out: % Inhibition of binding to ATP-binding-site ligand
Text: as §1, §2

MEK6 = MEK6 (Homo sapiens, UniProt P52564); experiment: as above; settings: read-out: percent inhibition of binding
Text: as §1, §2

MST1 = MST1 (Homo sapiens, UniProt Q13043); experiment: as above; settings: read-out: percent inhibition of binding
Text: (§3) In this assay, protein kinases are cloned into T7 bacteriophage which express the kinase fusion proteins on the phage capsid. T7 kinase-tagged phage are then screened for binding to ATP-binding-site ligands that have been immobilized on a solid support. Phage are screened for binding to the anchored ligands both in the presence of test compound and in its absence (control). Elution of the bound phage by free ligand (ATP-binding site ligand that is not immobilized on a solid support) followed by determination of the phage titre provides a reliable measure of the ability of test compounds to block binding of target kinases to resin-bound ATP-binding-site ligands.
(§4) T7 kinase-tagged phage strains were grown in parallel in microtiter plates in a proprietary bacterial host derived from E. Coli strain BL21. E. Coli were grown to a log phase, infected with T7 kinase-tagged phage, and incubated while shaking at 32° C. until bacterial lysis (approx. 90 min). Lysates were centrifuged (6,000 g) and filtered (0.2 μm). Small molecule ATP-binding-site-specific ligands were anchored to solid supports via a two step process beginning with biotin conjugation followed by treatment of the biotin/small molecule conjugate with streptavidin-coated magnetic beads. […] The phage titre of the eluates was measured by quantitative PCR or by plaque assays. […]

RPS6KA6(kin.Dom.2) = RPS6KA6(kin.Dom.2) (Homo sapiens, UniProt Q9UK32); experiment: as above; settings: read-out: percent inhibition of binding
Text: as §1, §2

MARK3 = MARK3 (Homo sapiens, UniProt P27448); experiment: as above; settings: read-out: % Inhibition of binding to ATP-binding-site ligand
Text: as §3, §4

DAPK1 = DAPK1 (Homo sapiens, UniProt P53355); experiment: as above; settings: read-out: percent inhibition of binding
Text: as §3, §4

[11] = Log10 Concentration −4.0, Molar
[12] = Log10 Concentration −5.0, Molar
[13] = Log10 Concentration −6.0, Molar
[14] = Log10 Concentration −7.0, Molar
[15] = Log10 Concentration −8.0, Molar

Chain of RPS6KA6(kin.Dom.2) (Q9UK32 426-683 limits assumed): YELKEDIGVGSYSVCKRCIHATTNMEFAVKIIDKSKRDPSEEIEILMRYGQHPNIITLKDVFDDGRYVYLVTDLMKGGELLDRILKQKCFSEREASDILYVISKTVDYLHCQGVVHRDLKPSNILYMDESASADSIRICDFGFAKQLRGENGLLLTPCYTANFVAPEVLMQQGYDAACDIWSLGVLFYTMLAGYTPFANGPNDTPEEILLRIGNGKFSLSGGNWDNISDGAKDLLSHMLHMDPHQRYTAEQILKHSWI
Chain of MARK3 (P27448 whole entry, species assumed): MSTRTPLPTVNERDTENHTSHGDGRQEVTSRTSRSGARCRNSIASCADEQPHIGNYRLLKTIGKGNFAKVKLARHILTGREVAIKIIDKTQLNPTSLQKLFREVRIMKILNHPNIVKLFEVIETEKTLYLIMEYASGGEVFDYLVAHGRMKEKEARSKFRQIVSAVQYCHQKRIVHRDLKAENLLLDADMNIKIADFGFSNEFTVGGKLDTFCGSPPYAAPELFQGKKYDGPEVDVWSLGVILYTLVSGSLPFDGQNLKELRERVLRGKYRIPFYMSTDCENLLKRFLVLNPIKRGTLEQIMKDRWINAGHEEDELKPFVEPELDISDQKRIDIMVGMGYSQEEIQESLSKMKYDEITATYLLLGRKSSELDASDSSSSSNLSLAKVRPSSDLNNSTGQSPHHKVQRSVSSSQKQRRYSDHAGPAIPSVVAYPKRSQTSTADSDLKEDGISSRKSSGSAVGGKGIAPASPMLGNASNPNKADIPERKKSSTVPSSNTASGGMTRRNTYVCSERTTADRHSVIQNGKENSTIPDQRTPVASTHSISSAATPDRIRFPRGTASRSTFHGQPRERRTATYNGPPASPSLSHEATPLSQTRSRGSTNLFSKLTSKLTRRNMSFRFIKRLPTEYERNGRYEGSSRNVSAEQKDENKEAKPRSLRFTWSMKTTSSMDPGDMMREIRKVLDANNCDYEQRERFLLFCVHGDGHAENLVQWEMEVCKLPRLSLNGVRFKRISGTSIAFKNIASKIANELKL
Chain of MST1 (Q13043 whole entry): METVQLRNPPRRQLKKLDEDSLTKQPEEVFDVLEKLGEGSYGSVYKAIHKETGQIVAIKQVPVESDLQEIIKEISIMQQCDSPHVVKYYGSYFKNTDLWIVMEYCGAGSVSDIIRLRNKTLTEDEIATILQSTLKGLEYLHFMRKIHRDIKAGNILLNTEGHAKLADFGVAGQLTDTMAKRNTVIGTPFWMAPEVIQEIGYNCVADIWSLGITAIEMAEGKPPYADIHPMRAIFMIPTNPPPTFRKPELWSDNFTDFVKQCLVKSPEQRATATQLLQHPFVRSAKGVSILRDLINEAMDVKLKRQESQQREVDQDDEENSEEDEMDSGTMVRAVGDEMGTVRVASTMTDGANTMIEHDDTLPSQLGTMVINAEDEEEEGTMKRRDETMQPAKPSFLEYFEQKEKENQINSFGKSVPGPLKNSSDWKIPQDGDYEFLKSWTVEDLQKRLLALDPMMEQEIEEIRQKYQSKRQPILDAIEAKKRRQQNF
Chain of DAPK1 (P53355 whole entry): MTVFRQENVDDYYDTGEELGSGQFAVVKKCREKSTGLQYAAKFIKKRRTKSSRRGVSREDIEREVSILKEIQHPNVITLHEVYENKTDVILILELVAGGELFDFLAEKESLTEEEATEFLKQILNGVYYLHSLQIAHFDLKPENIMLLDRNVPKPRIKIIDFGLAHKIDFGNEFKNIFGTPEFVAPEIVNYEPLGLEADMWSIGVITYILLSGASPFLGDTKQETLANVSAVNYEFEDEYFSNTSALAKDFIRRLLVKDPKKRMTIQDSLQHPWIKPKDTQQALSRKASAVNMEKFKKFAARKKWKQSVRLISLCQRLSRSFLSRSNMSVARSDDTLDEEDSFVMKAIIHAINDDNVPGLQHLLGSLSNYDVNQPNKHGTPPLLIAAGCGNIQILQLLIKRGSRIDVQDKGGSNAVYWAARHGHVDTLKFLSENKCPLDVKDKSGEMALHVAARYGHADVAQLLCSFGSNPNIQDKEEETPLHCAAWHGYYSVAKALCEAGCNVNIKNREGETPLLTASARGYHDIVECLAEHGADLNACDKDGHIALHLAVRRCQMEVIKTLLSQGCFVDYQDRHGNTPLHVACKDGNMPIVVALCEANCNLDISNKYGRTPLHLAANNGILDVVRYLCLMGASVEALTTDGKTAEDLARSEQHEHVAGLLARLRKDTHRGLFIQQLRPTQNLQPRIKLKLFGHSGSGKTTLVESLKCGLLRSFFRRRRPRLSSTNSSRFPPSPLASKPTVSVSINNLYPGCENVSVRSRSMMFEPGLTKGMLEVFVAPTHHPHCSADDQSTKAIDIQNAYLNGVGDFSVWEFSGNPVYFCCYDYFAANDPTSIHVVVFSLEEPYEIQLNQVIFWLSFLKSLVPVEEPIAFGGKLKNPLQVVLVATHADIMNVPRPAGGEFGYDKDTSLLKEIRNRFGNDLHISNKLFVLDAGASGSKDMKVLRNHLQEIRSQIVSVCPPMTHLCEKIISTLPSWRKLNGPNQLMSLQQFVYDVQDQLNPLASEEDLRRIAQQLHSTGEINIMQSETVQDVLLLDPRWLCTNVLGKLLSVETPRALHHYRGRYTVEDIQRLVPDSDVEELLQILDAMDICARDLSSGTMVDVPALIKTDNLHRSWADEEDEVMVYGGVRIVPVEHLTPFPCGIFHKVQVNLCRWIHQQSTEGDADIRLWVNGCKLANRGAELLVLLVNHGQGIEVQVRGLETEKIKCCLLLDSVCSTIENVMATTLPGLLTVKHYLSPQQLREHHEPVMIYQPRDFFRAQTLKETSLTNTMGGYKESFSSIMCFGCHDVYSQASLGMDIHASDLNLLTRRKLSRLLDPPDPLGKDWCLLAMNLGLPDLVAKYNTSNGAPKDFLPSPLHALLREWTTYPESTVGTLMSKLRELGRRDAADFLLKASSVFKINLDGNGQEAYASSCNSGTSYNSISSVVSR
Chain of MINK (Q8N4C8 whole entry): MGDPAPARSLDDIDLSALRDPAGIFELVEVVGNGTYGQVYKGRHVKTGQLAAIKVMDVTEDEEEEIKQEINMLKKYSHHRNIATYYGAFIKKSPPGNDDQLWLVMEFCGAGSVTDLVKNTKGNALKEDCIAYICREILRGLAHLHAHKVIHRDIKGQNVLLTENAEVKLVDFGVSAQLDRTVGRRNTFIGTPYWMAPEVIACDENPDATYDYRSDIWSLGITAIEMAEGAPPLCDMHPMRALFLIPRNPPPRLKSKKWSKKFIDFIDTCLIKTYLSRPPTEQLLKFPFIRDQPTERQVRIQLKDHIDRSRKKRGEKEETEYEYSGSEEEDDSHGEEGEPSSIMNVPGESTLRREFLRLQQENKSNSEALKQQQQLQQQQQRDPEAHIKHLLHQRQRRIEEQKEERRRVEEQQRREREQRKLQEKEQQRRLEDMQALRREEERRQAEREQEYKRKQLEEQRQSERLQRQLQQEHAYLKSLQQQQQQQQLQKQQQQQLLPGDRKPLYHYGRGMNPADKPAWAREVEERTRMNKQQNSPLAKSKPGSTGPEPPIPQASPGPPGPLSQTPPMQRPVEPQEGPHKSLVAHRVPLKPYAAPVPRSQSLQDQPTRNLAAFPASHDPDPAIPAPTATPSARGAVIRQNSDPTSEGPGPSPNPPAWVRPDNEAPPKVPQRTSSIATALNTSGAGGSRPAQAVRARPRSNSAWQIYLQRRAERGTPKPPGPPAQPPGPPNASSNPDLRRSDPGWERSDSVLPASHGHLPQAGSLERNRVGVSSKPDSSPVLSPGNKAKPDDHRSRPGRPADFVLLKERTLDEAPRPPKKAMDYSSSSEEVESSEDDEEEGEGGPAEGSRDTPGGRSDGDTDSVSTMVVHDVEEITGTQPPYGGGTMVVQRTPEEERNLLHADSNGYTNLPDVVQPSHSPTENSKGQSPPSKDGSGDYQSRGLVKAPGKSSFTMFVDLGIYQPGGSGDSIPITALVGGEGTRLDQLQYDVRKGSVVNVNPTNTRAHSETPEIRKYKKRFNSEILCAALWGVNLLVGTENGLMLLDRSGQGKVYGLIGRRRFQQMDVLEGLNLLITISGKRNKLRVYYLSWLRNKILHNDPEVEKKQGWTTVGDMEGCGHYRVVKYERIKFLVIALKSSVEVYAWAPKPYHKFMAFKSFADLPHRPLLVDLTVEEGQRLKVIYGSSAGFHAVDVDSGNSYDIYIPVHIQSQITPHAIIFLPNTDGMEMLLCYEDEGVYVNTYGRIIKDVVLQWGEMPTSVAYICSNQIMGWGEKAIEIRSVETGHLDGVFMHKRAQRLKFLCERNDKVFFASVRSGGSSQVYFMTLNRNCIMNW
Chain of CDK3 (Q00526 whole entry): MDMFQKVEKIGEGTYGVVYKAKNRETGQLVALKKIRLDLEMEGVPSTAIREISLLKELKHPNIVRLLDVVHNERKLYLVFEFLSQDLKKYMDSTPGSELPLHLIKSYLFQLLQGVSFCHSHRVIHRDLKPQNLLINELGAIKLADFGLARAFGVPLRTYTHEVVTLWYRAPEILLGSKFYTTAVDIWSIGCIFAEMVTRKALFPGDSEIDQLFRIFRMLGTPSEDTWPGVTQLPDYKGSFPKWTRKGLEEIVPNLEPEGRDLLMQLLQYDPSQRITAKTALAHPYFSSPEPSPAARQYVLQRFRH
Chain of MEK6 (P52564 whole entry): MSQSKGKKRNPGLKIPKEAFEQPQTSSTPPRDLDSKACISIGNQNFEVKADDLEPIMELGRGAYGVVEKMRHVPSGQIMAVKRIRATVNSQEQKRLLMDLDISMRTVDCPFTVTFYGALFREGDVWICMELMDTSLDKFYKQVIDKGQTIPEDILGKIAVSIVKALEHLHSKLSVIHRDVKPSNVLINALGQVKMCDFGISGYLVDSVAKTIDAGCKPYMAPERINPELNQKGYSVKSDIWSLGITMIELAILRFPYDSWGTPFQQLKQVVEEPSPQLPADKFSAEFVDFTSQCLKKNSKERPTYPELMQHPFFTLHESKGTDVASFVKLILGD

CNC(=O)NC[C@H]1O[C@@H](n2cnc3c(NC(=O)Nc4ccccc4)ncnc32)C(O[Si](C)(C)C(C)(C)C)[C@H]1O[Si](C)(C)C(C)(C)C (stereo partly drawn) [Compound 25, 2′,3′-Bis-O-(tert-butyldimethylsilyl)-5-deoxy-5′-[(N-methylcarbamoyl)amino]-N^6-(N-phenylcarbamoyl)adenosine]
TGI (PC-3 [1]): >1.00E−4 Molar
Percent Growth (PC-3 [1]; [11]): 4%
Percent Growth (PC-3 [1]; [12]): 6%
Percent Growth (PC-3 [1]; [13]): 83%
Percent Growth (PC-3 [1]; [14]): 91%
Percent Growth (PC-3 [1]; [15]): 93%
TGI (MDA-MB-468): 1.39E−5 Molar
GI50 (MDA-MB-468; Homo sapiens): 3.35 µM
IC50 (MDA-MB-468; Homo sapiens): > 100 µM
Percent Growth (MDA-MB-468; Log10 Concentration −4.0 Molar): −35%
Percent Growth (MDA-MB-468; Log10 Concentration −5.0 Molar): 5%
Percent Growth (MDA-MB-468; Log10 Concentration −6.0 Molar): 99%
Percent Growth (MDA-MB-468; Log10 Concentration −7.0 Molar): 104%
Percent Growth (MDA-MB-468; Log10 Concentration −8.0 Molar): 101%
GI50 (PC-3 [2]; PC-3): 2.69 µM
IC50 (PC-3 [2]; PC-3): > 100 µM

CNC(=O)NC[C@H]1O[C@@H](n2cnc3c(NC(=O)Nc4ccccc4)ncnc32)[C@H](O[Si](C)(C)C(C)(C)C)[C@@H]1CC(=O)N(C)OC [Compound 13, 2′-O-(tert-Butyldimethylsilyl)-3′,5′-dideoxy-3′-[(N-methoxy-N-methylcarboxamido)methyl]-5′-[(N-methylcarbamoyl)amino]-N^6-(N-phenylcarbamoyl)adenosine]
GI50 (SK-MEL-28 [3]; SK-MEL-28): 7.77 µM
CC50 (SK-MEL-28 [3]; SK-MEL-28, read-out: LC50): > 100 µM
TGI (SR [4]): 3.46E−6 Molar
Percent Growth (SR [4]; Log10 Concentration −4.0): −56%
Percent Growth (SR [4]; Log10 Concentration −5.0): −53%
Percent Growth (SR [4]; Log10 Concentration −6.0): 62%
Percent Growth (SR [4]; Log10 Concentration −7.0): 89%
Percent Growth (SR [4]; Log10 Concentration −8.0): 85%
GI50 (SW-620 [5]; SW-620): > 100 µM
CC50 (SW-620 [5]; SW-620, read-out: LC50): > 100 µM
TGI (K-562): >1.00E−4 Molar
Percent Growth (K-562; Log10 Concentration −4.0): 24%
Percent Growth (K-562; Log10 Concentration −5.0): 17%
Percent Growth (K-562; Log10 Concentration −6.0): 82%
Percent Growth (K-562; Log10 Concentration −7.0): 95%
Percent Growth (K-562; Log10 Concentration −8.0): 95%
GI50 (SR [6]): 1.27 µM
CC50 (SR [6]): 9.43 µM
GI50 (HL-60(TB); HL-60): 1.81 µM
CC50 (HL-60(TB); HL-60, read-out: LC50): 16.4 µM
TGI (HS 578T): >1.00E−4 Molar
Percent Growth (HS 578T; Log10 Concentration −4.0): 12%
Percent Growth (HS 578T; Log10 Concentration −5.0): 40%
Percent Growth (HS 578T; Log10 Concentration −6.0): 82%
Percent Growth (HS 578T; Log10 Concentration −7.0): 98%
Percent Growth (HS 578T; Log10 Concentration −8.0): 98%
CC50 [7]: > 100 µM
GI50 values (potent anticancer activities) ([8]; HOP-92): low micromolar
CC50 (cells; 786-0, read-out: LC50): > 100 µM
TGI (MOLT-4): 9.36E−6 Molar
Percent Growth (MOLT-4; Log10 Concentration −4.0): −5%
Percent Growth (MOLT-4; Log10 Concentration −5.0): −2%
Percent Growth (MOLT-4; Log10 Concentration −6.0): 78%
Percent Growth (MOLT-4; Log10 Concentration −7.0): 90%
Percent Growth (MOLT-4; Log10 Concentration −8.0): 96%
TGI (SW-620 [9]): >1.00E−4 Molar
Percent Growth (SW-620 [9]; Log10 Concentration −4.0): 50%
Percent Growth (SW-620 [9]; Log10 Concentration −5.0): 65%
Percent Growth (SW-620 [9]; Log10 Concentration −6.0): 93%
Percent Growth (SW-620 [9]; Log10 Concentration −7.0): 102%
Percent Growth (SW-620 [9]; Log10 Concentration −8.0): 99%
TGI (SK-MEL-28 [10]): >1.00E−4 Molar
Percent Growth (SK-MEL-28 [10]; Log10 Concentration −4.0): 27%
Percent Growth (SK-MEL-28 [10]; Log10 Concentration −5.0): 44%
Percent Growth (SK-MEL-28 [10]; Log10 Concentration −6.0): 101%
Percent Growth (SK-MEL-28 [10]; Log10 Concentration −7.0): 106%
Percent Growth (SK-MEL-28 [10]; Log10 Concentration −8.0): 97%

CCOC(=O)C[C@@H]1C(O[Si](C)(C)C(C)(C)C)[C@H](n2cnc3c(NC(=O)Nc4ccccc4)ncnc32)O[C@@H]1CNC(=O)NC (stereo partly drawn) [Compound 10]
TGI (PC-3 [1]; 48 h): 4.85E−6 Molar
Percent Growth (PC-3 [1]; [11]): −77%
Percent Growth (PC-3 [1]; [12]): −47%
Percent Growth (PC-3 [1]; [13]): 103%
Percent Growth (PC-3 [1]; [14]): 126%
Percent Growth (PC-3 [1]; [15]): 121%
inhibition at 10 µM (MINK): 20 to 29%
GI50 (SK-MEL-28 [3]; SK-MEL-28, 48 h): 6.85 µM
CC50 (SK-MEL-28 [3]; SK-MEL-28, 48 h, read-out: LC50): 48.7 µM
TGI (SR [4]; 48 h): 7.07E−6 Molar
Percent Growth (SR [4]; [11]): −34%
Percent Growth (SR [4]; [12]): −15%
Percent Growth (SR [4]; [13]): 85%
Percent Growth (SR [4]; [14]): 70%
Percent Growth (SR [4]; [15]): 82%
GI50 (SW-620 [5]; SW-620, 48 h): 4.8 µM
CC50 (SW-620 [5]; SW-620, 48 h, read-out: LC50): > 100 µM
TGI (K-562; 48 h): 3.29E−5 Molar
Percent Growth (K-562; [11]): −17%
Percent Growth (K-562; [12]): 19%
Percent Growth (K-562; [13]): 89%
Percent Growth (K-562; [14]): 93%
Percent Growth (K-562; [15]): 96%
inhibition at 10 µM (CDK3): 20 to 29%
GI50 (SR [6]; 48 h): 2.23 µM
CC50 (SR [6]; 48 h): > 100 µM
inhibition at 10 µM (ALK6): 47%
inhibition at 10 µM (MEK6): 20 to 29%
GI50 (HL-60(TB); HL-60, 48 h): 3.01 µM
CC50 (HL-60(TB); HL-60, 48 h, read-out: LC50): > 100 µM
TGI (HS 578T; 48 h): 5.36E−5 Molar
Percent Growth (HS 578T; [11]): −7%
Percent Growth (HS 578T; [12]): 18%
Percent Growth (HS 578T; [13]): 90%
Percent Growth (HS 578T; [14]): 95%
Percent Growth (HS 578T; [15]): 94%
inhibition at 10 µM (MST1): 20 to 29%
CC50 [7]: > 100 µM
GI50 (PC-3 [2]; PC-3, 48 h): 2.25 µM
CC50 (PC-3 [2]; PC-3, 48 h, read-out: LC50): 12.5 µM
GI50 values (potent anticancer activities) ([8]; HOP-62, NCI-H522, COLO 205, KM12, SW-620, SF-539, SNB-75, M14, SK-MEL-2, UACC-257, 786-0, ACHN, SN12C, PC-3, DU-145, MDA-MB-231/ATCC, MDA-MB-435, T-47D): low micromolar
inhibition at 10 µM (RPS6KA6(kin.Dom.2)): 20 to 29%
inhibition at 10 µM (MARK3): 34%
inhibition at 10 µM (DAPK1): 20 to 29%
CC50 (cells; 48 h, read-out: LC50): 17.9 µM
TGI (MOLT-4; 48 h): 2.33E−5 Molar
Percent Growth (MOLT-4; [11]): −14%
Percent Growth (MOLT-4; [12]): 8%
Percent Growth (MOLT-4; [13]): 76%
Percent Growth (MOLT-4; [14]): 84%
Percent Growth (MOLT-4; [15]): 93%
TGI (SW-620 [9]; 48 h): 2.84E−5 Molar
Percent Growth (SW-620 [9]; [11]): −33%
Percent Growth (SW-620 [9]; [12]): 28%
Percent Growth (SW-620 [9]; [13]): 97%
Percent Growth (SW-620 [9]; [14]): 94%
Percent Growth (SW-620 [9]; [15]): 97%
TGI (SK-MEL-28 [10]; 48 h): 2.02E−5 Molar
Percent Growth (SK-MEL-28 [10]; [11]): −91%
Percent Growth (SK-MEL-28 [10]; [12]): 40%
Percent Growth (SK-MEL-28 [10]; [13]): 100%
Percent Growth (SK-MEL-28 [10]; [14]): 106%
Percent Growth (SK-MEL-28 [10]; [15]): 104%
